Assay results: patent US20090220425A1, “Method to Quantitatively Measure Effect of Psychotropic Drugs on Sensory Discrimination” (DREXEL UNIVERSITY, priority 2006, published 2009)

How the values were obtained:
[1] = test system: neurons of the infragranular layer of the primary somatosensory cortex of the rat; experiment: Classical neurophysiological measures of somatosensory responses (sensory mapping, magnitude and latency of neural responses to touch stimuli) before and after drug; type: in vivo
[2] = test system: ensemble of neurons in the deep layers of the forelimb rat primary somatosensory cortex; experiment: PSTH-based classification of stimulus location from single-trial responses of neuron ensembles (information representation); type: in vivo; conditions: for classification performance (bits of information) after drug compared to saline: one ensemble of neurons, touch-stimuli to contralateral body, every bin size tested, FIGS. 1A and 1B

Row | Structure (SMILES) | effectiveness of the low dose ([1]; MCPP 0.075 (low) mg/kg, intraperitoneal (IP), dissolved in saline) | classification performance (bits of information) after drug compared to saline [2] | effectiveness of the medium dose ([1]; FLU 10 (medium) mg/kg, IP injection, dissolved in saline) | number of spikes per stimulus after drug ([1]; fluoxetine 10 mg/kg, two rats, 0.67 spikes per stimulus before drug, significant increase, p<0.001) [spikes per stimulus] | latency of the response after drug ([1]; fluoxetine 10 mg/kg, two rats, 20 msec before drug, decrease did not reach significance (p=0.11)) [ms] | amount of information represented by the ensemble after administration ([2]; binsize from 40 ms (spike-count) to 1 ms (spike-timing), single-trial discrimination of stimulus location)
1 | Clc1cccc(N2CCNCC2)c1 [MCPP, meta-chlorophenylpiperazine] | effective | increase for every bin size tested |  |  |  | 
2 | CNCCC(Oc1ccc(C(F)(F)F)cc1)c1ccccc1 (stereo not shown) [fluoxetine] |  | increased for every bin size tested | effective | 1.05 | 17.5 | greater
